Measured values as given in US20100316529A1, “Anti-Microbial Systems and Methods” (priority 2001, published 2010).
“And” between values parts separate entries of the source, which are not always exact repeats. Equal entries are not always repeated.

Columns and labels:
Format in all cases: cell-based
Cornyeform amycolatum = test: EDTA salt dilution test, MIC/MBC
Proteus vulgaris = test: EDTA salt dilution test, MIC/MBC
MRSA = test: EDTA salt dilution test, MIC/MBC; details: five entries, Exhibit A2
Method: (§1) Protocol one: Broth dilutions:
(§2) Inoculate a 25 ml nutrient broth (Oxoid No2) in a sterile universal container with one of the following organisms; Pseudomonas aeruginosa, Proteus Mirabilis, E. coli, Klebsiella pneumoniae, Staph aureus, Coagulase negative staphylococci, Enterococcus faecalis or MRSA.
(§3) Incubate the broth at 37° C. overnight.
(§4) To make these concentrations put the EDTA needed for 10 mLs in only 9 mLs of broth in sterile universal containers, as this will be diluted further when the organisms are added.
(§5) Dilute the overnight broth cultures to 10^7 organisms/mL using more sterile nutrient broth.
(§6) Add 1 mL of this diluent to each of the EDTA series broths. This gives a final concentration of 10^6 organism/mL in the EDTA broths.
(§7) Incubate for 18 hours at 37° C.
(§8) Next day visually read the MIC's by observing the turbidity of the broths.
(§9) Plate out 1 uL of each dilution onto fresh blood agar plate and spread using a sterile plastic spreader.
(§10) Incubate overnight at 37° C.
(§11) Next day read the MBC's by performing colony counts.

S. capitis = test: EDTA salt dilution test, MIC/MBC; details: two entries
Method: as §1, §2, §3, §4, §5, §6, §7, §8, §9, §10, §11

VRE = test: EDTA salt dilution test, MIC/MBC; details: two entries
Method: as §1, §2, §3, §4, §5, §6, §7, §8, §9, §10, §11

S. lentus = test: EDTA salt dilution test, MIC/MBC
Method: as §1, §2, §3, §4, §5, §6, §7, §8, §9, §10, §11

E. coli = test: EDTA salt dilution test, MIC/MBC; details: three entries, Exhibit A1
Method: as §1, §2, §3, §4, §5, §6, §7, §8, §9, §10, §11

Kleb. pnemoniae = test: EDTA salt dilution test, MIC/MBC; details: two entries, Exhibit A1
Method: as §1, §2, §3, §4, §5, §6, §7, §8, §9, §10, §11

Pseudomonas sp. = test: EDTA salt dilution test, MIC/MBC
Method: as §1, §2, §3, §4, §5, §6, §7, §8, §9, §10, §11

S. simulans = test: EDTA salt dilution test, MIC/MBC
Method: as §1, §2, §3, §4, §5, §6, §7, §8, §9, §10, §11

S. aureus = test: EDTA salt dilution test, MIC/MBC; details: five entries, Exhibit A2
Method: as §1, §2, §3, §4, §5, §6, §7, §8, §9, §10, §11

S. xylosus = test: EDTA salt dilution test, MIC/MBC
Method: as §1, §2, §3, §4, §5, §6, §7, §8, §9, §10, §11

S. epidermidis = test: EDTA salt dilution test, MIC/MBC; details: two entries
Method: as §1, §2, §3, §4, §5, §6, §7, §8, §9, §10, §11

Proteus mirabilis = test: EDTA salt dilution test, MIC/MBC; details: two entries
Method: as §1, §2, §3, §4, §5, §6, §7, §8, §9, §10, §11

Pseudomonas aeruginosa = test: EDTA salt dilution test, MIC/MBC; details: two entries
Method: as §1, §2, §3, §4, §5, §6, §7, §8, §9, §10, §11

Ent. faecalis = test: EDTA salt dilution test, MIC/MBC
Method: as §1, §2, §3, §4, §5, §6, §7, §8, §9, §10, §11

Ent. cloacae = test: EDTA salt dilution test, MIC/MBC; details: three entries, Exhibit A1
Steno. maltophilia = test: EDTA salt dilution test, MIC/MBC
Ent. faeculm = test: EDTA salt dilution test, MIC/MBC
Coryneform strait/amy = test: EDTA salt dilution test, MIC/MBC
Acinetobacter baumanii = test: EDTA salt dilution test, MIC/MBC; details: two entries, Exhibit A2
C. lucitaniae = test: EDTA agar dilution method, yeasts, MIC/MBC; details: Exhibit C
Excerpt: (§12) Protocol 3: Agar dilutions.
Do this until all the media is used up.

Kleb. ornitholytica = test: EDTA salt dilution test, MIC/MBC
C. guilliermondii = test: EDTA agar dilution method, yeasts, MIC/MBC; details: Exhibit C
Method: (§13) The bactericidal effects were measured as the Minimum Bactericidal Concentration (MBC), while the inhibitory effects were measured as the Minimum Inhibitory Concentration (MIC). In each case, the concentration was measured as milligrams of the disinfectant salt per milliliter of water (mg/ml).
as §12
(§14) Prepare nutrient agar plates with increasing concentrations of EDTA, 0, 0.5, 1, 1.5, 2, 4, 6, 8, 10, 15, 20, 25, 30 mg/mL, using the following method. • Pour 300 mL distilled water into a sterile glass bottle. • Add the appropriate amount of EDTA. This is the concentration desired ×300, in grams. • Once the EDTA has fully dissolved, add 8.4 g of Nutrient agar powder (Oxoid). Mix thoroughly. • Do this for each concentration of EDTA required. […] Do this until all the media is used up. Label the plates with the concentration of EDTA they contain. • These plates can then be stored, until they are needed, in a 4° C. fridge. • Use an automatic plate inoculator to inoculate each plate with 21 organisms.

C. albicans = test: EDTA agar dilution method, yeasts, MIC/MBC; details: three entries, Exhibit C
Method: as §13, §12, §14

C. glabrata = test: EDTA agar dilution method, yeasts, MIC/MBC; details: two entries, Exhibit C
Method: as §13, §12, §14

C. parapsilosis = test: EDTA agar dilution method, yeasts, MIC/MBC; details: Exhibit C
Method: as §13, §12, §14

C. tropicalis = test: EDTA agar dilution method, yeasts, MIC/MBC; details: Exhibit C
Method: as §13, §12, §14

Kleb. oxytoca = test: EDTA salt dilution test, MIC/MBC
variety of microbes = test: Efficacy of disinfectant salts of EDTA against a number of microbes; details: general statement
Method: The Applicant has tested the efficacy of a number of disinfectant salts of EDTA against a number of microbes.
as §1, §2, §3
Next day make up a series of nutrient broths containing a dilution of the appropriate EDTA as in the following list; 0 mg/mL, 0.25 mg/mL, 0.5 mg/mL, 1.0 mg/mL, 1.5 mg/mL, 2.0 mg/mL, 4.0 mg/mL, 6.0 mg/mL, 8.0 mg/mL, 10 mg/mL, 15 mg/mL, 20 mg/mL, 25 mg/mL, 30 mg/ml, 40 mg/mL, 50 mg/mL, 60 mg/mL, 70 mg/mL, 80 mg/mL, 90 mg/mL, 100 mg/mL.
as §4, §5, §6, §7
Next day visually read the MIC's by observing the turbidity of the broths. […]
as §11

N.N.O=C(O)CN(CCN(CC(=O)O)CC(=O)O)CC(=O)O [Diammonium EDTA]
MBC, minimum concentration required to kill an entire population (Cornyeform amycolatum; Exhibit A1): 1000 µg/mL
MIC, minimum concentration required to inhibit growth (Cornyeform amycolatum; Exhibit A2): <500 µg/mL
MBC, minimum concentration required to kill an entire population (Proteus vulgaris; Exhibit A1): >10000 µg/mL
MIC, minimum concentration required to inhibit growth (Proteus vulgaris; Exhibit A2): <500 µg/mL
MIC, minimum concentration required to inhibit growth (MRSA): 1000 µg/mL
MBC, minimum concentration required to kill an entire population (S. capitis; Exhibit A1): 10000 µg/mL and 8000 µg/mL
MIC, minimum concentration required to inhibit growth (S. capitis; Exhibit A2): <500 µg/mL
MBC, minimum concentration required to kill an entire population (VRE; Exhibit A1): 15000 µg/mL and >15000 µg/mL
MIC, minimum concentration required to inhibit growth (VRE; Exhibit A2): <500 µg/mL and 1000 µg/mL
MBC, minimum concentration required to kill an entire population (S. lentus; Exhibit A1): 10000 µg/mL
MIC, minimum concentration required to inhibit growth (S. lentus; Exhibit A2): <500 µg/mL
MBC, minimum concentration required to kill an entire population (E. coli): >10000 µg/mL
MBC, minimum concentration required to kill an entire population (Kleb. pnemoniae): >10000 µg/mL
MBC, minimum concentration required to kill an entire population (Pseudomonas sp.; Exhibit A1): >10000 µg/mL
MIC, minimum concentration required to inhibit growth (Pseudomonas sp.; Exhibit A2): <500 µg/mL
MBC, minimum concentration required to kill an entire population (S. simulans; Exhibit A1): 10000 µg/mL
MIC, minimum concentration required to inhibit growth (S. simulans; Exhibit A2): <500 µg/mL
MIC, minimum concentration required to inhibit growth (S. aureus): 1000 µg/mL
MBC, minimum concentration required to kill an entire population (S. xylosus; Exhibit A1): 4000 µg/mL
MIC, minimum concentration required to inhibit growth (S. xylosus; Exhibit A2): <500 µg/mL
MBC, minimum concentration required to kill an entire population (S. epidermidis; Exhibit A1): 4000 µg/mL and 8000 µg/mL
MIC, minimum concentration required to inhibit growth (S. epidermidis; Exhibit A2): <500 µg/mL
MBC, minimum concentration required to kill an entire population (Proteus mirabilis; Exhibit A1): >10000 µg/mL
MIC, minimum concentration required to inhibit growth (Proteus mirabilis; Exhibit A2): <500 µg/mL
MBC, minimum concentration required to kill an entire population (Pseudomonas aeruginosa; Exhibit A1): >10000 µg/mL
MIC, minimum concentration required to inhibit growth (Pseudomonas aeruginosa; Exhibit A2): 1000 µg/mL
MBC, minimum concentration required to kill an entire population (Ent. faecalis; Exhibit A1): 15000 µg/mL
MIC, minimum concentration required to inhibit growth (Ent. faecalis; Exhibit A2): 1000 µg/mL
MBC, minimum concentration required to kill an entire population (Ent. cloacae): >10000 µg/mL
MBC, minimum concentration required to kill an entire population (Steno. maltophilia; Exhibit A1): >10000 µg/mL
MIC, minimum concentration required to inhibit growth (Steno. maltophilia; Exhibit A2): 1000 µg/mL
MIC, minimum concentration required to inhibit growth (Ent. faeculm; Ent. faecuim, Exhibit A2): <500 µg/mL
MBC, minimum concentration required to kill an entire population (Ent. faeculm; Ent. faeculm, Exhibit A1): 15000 µg/mL
MBC, minimum concentration required to kill an entire population (Coryneform strait/amy; Exhibit A1): 1000 µg/mL
MIC, minimum concentration required to inhibit growth (Coryneform strait/amy; Exhibit A2): <500 µg/mL
MIC, minimum concentration required to inhibit growth (Acinetobacter baumanii): <500 µg/mL
MIC's, Minimum Inhibitory Concentration (C. lucitaniae): 500 µg/mL
MBC, minimum concentration required to kill an entire population (Kleb. ornitholytica; Exhibit A1): >10000 µg/mL
MIC, minimum concentration required to inhibit growth (Kleb. ornitholytica; Exhibit A2): 1000 µg/mL
MIC's, Minimum Inhibitory Concentration (C. guilliermondii): 500 µg/mL
MIC's, Minimum Inhibitory Concentration (C. albicans): 500 µg/mL
MIC's, Minimum Inhibitory Concentration (C. glabrata): 500 µg/mL
MIC's, Minimum Inhibitory Concentration (C. parapsilosis): 500 µg/mL
MIC's, Minimum Inhibitory Concentration (C. tropicalis): 1000 µg/mL
MBC, minimum concentration required to kill an entire population (Kleb. oxytoca; Exhibit A1): >10000 µg/mL
MIC, minimum concentration required to inhibit growth (Kleb. oxytoca; Exhibit A2): 1000 µg/mL
anti-microbial (antifungal and antibacterial) properties compared with the disodium salt (variety of microbes): superior to disodium EDTA
